Assay results as given in patent publication US10626436B2, “Method of determining a compositional or functional characteristic of a cell culture media” (Valitacell Limited, priority 2015, dated 2020).

Experiments:
[1] = system: reference CHO producer cell; assay: Growth of reference CHO producer cell in static microplate culture with a cell stressor in four lots of the same cell culture media; assay type: cell-based; conditions: stressor at an inhibitory concentration, each in triplicate, FIGS. 3-5
Procedure: FIG. 3: A reference CHO producer cell was grown in static microplate culture in the presence of cobalt chloride (CoCL2) at an inhibitory concentration and four different lots of the same cell culture media (each lot provided in triplicate).
FIG. 4: A reference CHO producer cell was grown in static microplate culture in the presence of menadione sodium bisulphite (MSB2) at an inhibitory concentration and four different lots of the same cell culture media (each lot provided in triplicate).
FIG. 5: A reference CHO producer cell was grown in static microplate culture in the presence of sodium lactate (NaLac) at an inhibitory concentration and four different lots of the same cell culture media (each lot provided in triplicate).

[2] = system: CHO cell line; assay: Chemical fingerprinting: growth of CHO cells with cell stressors in two CD-CHO media lots (Presto Blue assay); assay type: cell-based; conditions: CD-CHO media lot 66 vs lot 28; stressor at IC50 concentration, both MSB concentrations; FIG. 2; p<0.05 (Benjamini-Hockberg)
Procedure: Two different batches of “CD-CHO media” (Invitrogen, Paisley, UK) were obtained. A CHO cell line was grown in these […] media for 3 passages in 30 ml shake flask culture. “Presto Blue” (Invitrogen, Paisley, UK) was mixed 1:1 with CD-CHO media and 20 ul of this was added to each well. The plate was machine shaken and subsequently incubated for 30 minutes at 37 C in a static humidified incubator. After incubation the fluorescence of the wells was measured (excitation 535 nm emission 620 nm) using a fluoroskan ascent (Thermo-Fisher, Loughborough, UK) plate reader. […] It is clear here that there were significant differences in the cell growth in these different batches of media. This was clearly significant from day 4 onwards.
To test the effect this had on the chemical fingerprint, CHO cells were sub-cultured in CD-CHO in either lot number (66) or (28) for 3 passages. Chemical fingerprinting plates were set up in duplicate to determine the growth of cells in the presence of specific cellular stressors
Using the same CHO cell line used above for the growth studies, inhibitory dose 50 (IC50) concentrations of the above chemicals were identified through growth studies. […]
After this period the level of cell growth in the plates (i.e. in the presence and absence of chemicals as mentioned above) was measured using the “Presto Blue” assay as described above. […]

Compound	growth response of the cell in different lots of the cell culture media in the presence of the stressor [1]	chemical response (cell growth relative to control well) compared between media lots [2]
CC1(S(=O)(=O)[O-])CC(=O)c2ccccc2C1=O.[Na+] (stereo not shown) [MSB, Menadione Sodium Bisulphite]	differences in growth response	clearly significant difference
[Cl][Co][Cl] [cobalt chloride, Cobalt chloride]	differences in growth response	
CC(O)C(=O)[O-].[Na+] (stereo not shown) [sodium lactate, Sodium lactate]	differences in growth response	
